# What was measured:
# Assay type in all cases: in vivo, rat
# hSyn-hM4D [1] = biological target: T1, hSyn-hM4D (Homo sapiens, UniProt P08173, A203G/Y113C); assay: Pain-like behavior after infraorbital nerve chronic constriction injury (IoN-CCI), synapsin-DREADD (hSyn-hM4D); conditions: IoN-CCI males
# T1 construct: expressed in transfected cells; host or cells: rat trigeminal ganglion neurons in vivo, viral vector with synapsin promoter
# T1 sequence (P08173 1-479 Y113C/A203G): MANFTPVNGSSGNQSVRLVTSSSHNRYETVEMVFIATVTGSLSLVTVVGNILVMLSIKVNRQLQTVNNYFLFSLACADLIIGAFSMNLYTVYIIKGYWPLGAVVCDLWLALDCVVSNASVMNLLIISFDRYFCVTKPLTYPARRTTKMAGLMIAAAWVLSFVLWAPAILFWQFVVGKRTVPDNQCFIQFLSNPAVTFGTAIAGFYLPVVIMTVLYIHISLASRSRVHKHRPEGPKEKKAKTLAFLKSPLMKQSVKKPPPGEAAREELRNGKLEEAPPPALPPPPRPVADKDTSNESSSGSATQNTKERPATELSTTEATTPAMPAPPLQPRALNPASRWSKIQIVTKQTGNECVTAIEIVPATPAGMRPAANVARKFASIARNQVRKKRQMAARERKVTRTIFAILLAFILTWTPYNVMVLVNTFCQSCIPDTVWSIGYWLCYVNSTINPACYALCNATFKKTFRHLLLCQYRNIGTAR
# Text: For the infraorbital nerve chronic constriction injury (ION-CCI), ˜0.5 cm of the infraorbital nerve will be freed and two chromic gut ligatures will be loosely tied around it (2 mm apart) prior to closure of the incision (all performed under ketamine/xylazine anesthesia). As a control, other rats will undergo sham surgery where the infraorbital nerve is exposed but left untouched. This model results in persistent pain beginning at about 2 weeks postoperatively and lasting at least 3 weeks (Benoliel et al. (2001) Neurosci. Lett., 297:151-4; Benoliel et al. (2002) Pain 97:203-12), allowing for the assessment of the effect of vehicle vs CNO/DREADD-mediated inhibition of TG neurons on this behavior at multiple time points. Fos expression and cAMP levels may also be measured in the TG to correlate these molecular endpoints to behavioral effects of DREADD activation. The rats will also undergo repeated stimulation with a 2-g von Frey hair applied to the hairy skin of the vibrissae on the operated side to induce Fos (Vos et al. (1995) J. Comp. Neurol., 357:362-75). Activation of hM4Di receptors will reduce Fos in the TG following von Frey stimulation.
# The effects of synapsin-DREADD activation with CNO on pain-like behavior following chronic constriction injury (CCI) of the infraorbital nerve (ION) were also studied (FIG. 6). The mean von Frey detection thresholds (±SEM) (left) and the mean response scores (±SEM) (right) to the pin-prick stimulation applied to the vibrissal pads were plotted. All animals (males, n=4 per group) were exposed to the infraorbital nerve chronic constriction injury (IoN-CCI) unilaterally. Following IoN-CCI, all animals had synapsin-DREADD (hSyn-hM4D) injected into the ipsilateral trigeminal ganglion. At post-operative day 26 (D26) CNO or vehicle was delivered intraperitoneally 30 minutes prior to behavioral testing.
# [2] = biological target: T2, hM4Di receptors expressed in TG (Homo sapiens, UniProt P08173, A203G/Y113C); assay: Orofacial formalin test after AAV5-hSyn-hM4Di-mCherry injection into TG (Example 1); conditions: rats with AAV5-hSyn-hM4Di-mCherry in TG, vs vehicle
# T2 construct: expressed in transfected cells; host or cells: rat trigeminal ganglion neurons in vivo, transduced with AAV5 (synapsin promoter)
# T2 sequence (P08173 1-479 Y113C/A203G): T1 sequence (P08173 1-479 Y113C/A203G)
# Text: The orofacial formalin model is well established for inducing behavioral and molecular changes indicating pain. The formalin model mimics the clinical situation of an acute insult that wanes rapidly. Models of trigeminal pain and their behavioral and molecular assessments have been described (Benoliel et al. (2001) Pain 91:111-21; Benoliel et al. (2001) Neurosci. Lett., 297:151-4; Benoliel et al. (2002) Pain 97:203-12; Benoliel et al. (2002) Pain 99:567-78). There is increased and intense directed facial grooming following injection of formalin into the rat vibrissal pad, and the duration of grooming is thought to represent the level of pain (Clavelou et al. (1995) Pain 62:295-301; Raboisson et al. (1995) J. Neurophysiol., 73:496-505; Sukriti et al. (2004) Methods Find Exp. Clin. Pharmacol., 26:253-6). At day 37 after virus injection (to allow for viral transfection and DREADD expression), acute pain was induced by subcutaneous injection of 50 μL of 1.5% formalin into the rat's vibrissal pad. Formalin activates Aδ and C nociceptors as well as trigeminal and spinal nociceptive neurons. Formalin-induced unilateral pain is biphasic, with an early short-lasting (3-5 minutes) phase, followed after a quiescent period by a second, prolonged (20-40 minutes) tonic phase. The orofacial formalin test is a valid and reliable way of producing and quantifying nociception in the trigeminal region of the rat (Raboisson et al. (2004) Neurosci. Biobehay. Rev., 28:219-26; Le Bars et al. (2001) Pharmacol. Rev., 53:597-652; Vos et al. (1998) Pain 76:173-8). The concentration of formalin used allows for the detection of both hypo- and hyperalgesic effects. The time that the animal spends rubbing the injected area with fore- or hind paws was recorded. Thirty minutes prior to injecting formalin the animals received CNO ([…], ip) or vehicle treatment.
# hSyn-hM4D [3] = biological target: T1, hSyn-hM4D; assay: Face grooming after s.c. formalin into right upper lip, synapsin-DREADD (hSyn-hM4D); conditions: n=7 per group, vs vehicle
# Description: The effects of synapsin-DREADD activation with CNO on face grooming activity observed after subcutaneous (s.c.) injection of formalin into the right upper lip were also studied (FIG. 5). The mean number of seconds that rats (males, n=7 per group; females, n=7 per group) spent grooming (±SEM) is plotted for the 45 minutes post-formalin injection observation period. All animals had synapsin-DREADD (hSyn-hM4D) injected into the right trigeminal ganglion. CNO or vehicle was delivered intraperitoneally 30 minutes prior to the s.c. injection of 1.5% formalin (50 μl) into the right upper lip (ipsilateral side), just lateral to the nose.
# [4] = CNO ip 30 min prior to formalin
smiles,measurement,setting,value
"C[N+]1([O-])CCN(C2=Nc3cc(Cl)ccc3Nc3ccccc32)CC1 [CNO, clozapine N-oxide]","pin-prick response score, contralateral side",hSyn-hM4D [1]; CNO i.p. at D26,No significant effects
same,"von Frey detection threshold, contralateral side",hSyn-hM4D [1]; CNO i.p. at D26,No significant effects
same,"von Frey detection threshold, ipsilateral side, compared to post-operative days 21 and 27","hSyn-hM4D [1]; CNO i.p. at D26, D21 F=20.4, P=0.004, D27 F=7.8, P=0.03",significantly increased
same,"pin-prick response score, ipsilateral side, compared to post-operative days 21 and 27","hSyn-hM4D [1]; CNO i.p. at D26, D21 F=32, P=0.001, D27 F=21, P=0.004",significantly decreased
same,"von Frey detection threshold, ipsilateral side, compared to vehicle treated animals","hSyn-hM4D [1]; n=4 per group, CNO i.p. at D26, 30 min prior to testing, F=7.8, P=0.03",significantly increased
same,"pin-prick response score, ipsilateral vibrissal pad, compared to vehicle treated animals","hSyn-hM4D [1]; n=4 per group, CNO i.p. at D26, F=7.7, P=0.03",significantly decreased
same,total time spent grooming after formalin,"[2]; CNO (10 mg/ml, ip) 30 min prior to 50 μL 1.5% formalin s.c. vibrissal pad, day 37 after virus, n=3/group, p<0.04",significantly reduced
same,grooming in early phase (<9 minutes) after formalin,[2]; [4],trends to reduce
same,grooming in late phase (9-45 minutes) after formalin,[2]; [4],trends to reduce
same,"total face grooming time, tonic phase (12-45 minutes post formalin injection)","hSyn-hM4D [3]; females, CNO i.p. 30 min prior to formalin, F=5.5, P=0.02",significantly reduced
same,"total face grooming time, tonic phase (12-45 minutes post formalin injection)","hSyn-hM4D [3]; males, CNO i.p. 30 min prior to 1.5% formalin (50 μl) s.c., F=27.1, P<0.0001",significantly reduced
same,"total face grooming time, acute phase (0-6 minutes post formalin injection)","hSyn-hM4D [3]; males, CNO i.p. 30 min prior to formalin, F=4.5, P=0.04",significant reduction

# — US20190046662A1, “Compositions and Methods for Treating Neuropathic Pain” (Rutgers, The State University of New Jersey, priority 2016, published 2019)
